In patent publication US20110039770A1, “INHIBITORS OF PROTEIN KINASE C ISOFORMS AND USES THEREOF” (PHARMAGAP INC., priority 2005, published 2011):
Where a SMILES comes first, the peptide text is derived from it. The star is where a group is joined. PNA(A) = NCCN(CC(=O)*)C(=O)Cn1cnc2c(N)ncnc21

What was measured:
[1] = Acute toxicity studies in mice (IV, topical, oral); format: in vivo, mouse
Experimental: Acute toxicity studies were performed on mice using three different delivery routes: IV (tail), topical and oral. […] The LD50 obtained from the IV study was determined to be 750 μg-1 mg per mouse. The “no observed adverse effect level” was determined to be 250 μg per mouse, approximately twice the concentration of TIM 10 provided to mice in the studies discussed above.

PKC epsilon = target: T1, PKC epsilon (Homo sapiens, UniProt Q02156); experiment: PKC isoform protein levels in cancer cell lines after TIM 10 (Western blot); format: cell-based; parameters: endogenous in cells; settings: 5 mM by pinocytic influx, 24 hrs
T1 sequence (Q02156 1-737): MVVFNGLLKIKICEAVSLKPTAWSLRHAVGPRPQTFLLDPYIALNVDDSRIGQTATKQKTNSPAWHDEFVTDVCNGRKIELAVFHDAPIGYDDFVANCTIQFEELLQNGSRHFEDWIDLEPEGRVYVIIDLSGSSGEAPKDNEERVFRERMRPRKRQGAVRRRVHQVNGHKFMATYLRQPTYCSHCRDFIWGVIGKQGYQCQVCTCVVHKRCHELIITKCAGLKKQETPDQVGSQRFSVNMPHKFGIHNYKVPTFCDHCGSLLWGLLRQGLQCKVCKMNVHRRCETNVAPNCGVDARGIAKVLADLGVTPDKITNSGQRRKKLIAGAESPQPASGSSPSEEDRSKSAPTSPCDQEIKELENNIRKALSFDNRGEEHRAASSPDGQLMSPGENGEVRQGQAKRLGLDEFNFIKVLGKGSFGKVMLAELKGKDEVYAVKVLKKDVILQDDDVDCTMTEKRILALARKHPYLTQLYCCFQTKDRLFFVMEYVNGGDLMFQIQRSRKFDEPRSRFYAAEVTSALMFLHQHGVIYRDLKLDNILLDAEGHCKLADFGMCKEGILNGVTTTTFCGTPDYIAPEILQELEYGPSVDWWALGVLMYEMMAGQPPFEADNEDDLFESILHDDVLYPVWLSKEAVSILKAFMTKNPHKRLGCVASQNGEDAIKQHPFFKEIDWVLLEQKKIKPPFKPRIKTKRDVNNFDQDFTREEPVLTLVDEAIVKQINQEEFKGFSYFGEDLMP
Experimental: (§1) The effect of compound TIM 10 on the levels of protein for various PKC isoforms was assessed as generally described below in the following human cancer cell lines: MDA MB-231 breast adenocarcinoma cells (ATCC HTB-26); T24 bladder transitional cell carcinoma (ATCC HTB-4); SKOV-3 ovary adenocarcinoma (ATCC HTB-77); MCF-7 breast adenocarcinoma (ATCC HTB-22); Capan-2 pancreatic adenocarcinoma (ATCC HTB-80); NCI-H661 NSCL large cells (ATCC HTB-183); Calu-6 probable lung anaplastic carcinoma (ATCC HTB-56) and Calu-3 lung adenocarcinoma (ATCC HTB-55).
(§2) Cells representative of the different cancer types were cultured according to ATCC instructions. At subconfluence, the cells were trypsinized and compound 10 (5 mM) was incorporated into the cells by pinocytic influx endocytosis according to the manufacturer's instructions (Molecular Probe). Matching controls were treated accordingly except that vehicle was incorporated instead of compound 10. Following pinocytic influx, the cells were seeded and allowed to grow in fresh medium for 24 hrs. The cell cultures were further extracted using RIPA lysis buffer according to standard protocol. The protein content of each lysate was measured using Bradford protein estimation procedure (BioRad) and normalized. Following addition of sample buffer, the proteins from 15 μl of each extract were separated by electrophoresis, electro-transferred to nitrocellulose membranes and the various isoforms of PKC were detected using appropriate antibodies (Santa Cruz Biotechnology, Inc., CA). The relative intensity of bands of the expected molecular weight was estimated after scanning and the % decrease in the band intensity relative to control was calculated.

PKC zeta = target: T2, PKC zeta (Homo sapiens, UniProt Q05513); experiment: as above; format: cell-based; parameters: endogenous in cells; settings: 5 mM by pinocytic influx, 24 hrs
T2 sequence (Q05513 1-592): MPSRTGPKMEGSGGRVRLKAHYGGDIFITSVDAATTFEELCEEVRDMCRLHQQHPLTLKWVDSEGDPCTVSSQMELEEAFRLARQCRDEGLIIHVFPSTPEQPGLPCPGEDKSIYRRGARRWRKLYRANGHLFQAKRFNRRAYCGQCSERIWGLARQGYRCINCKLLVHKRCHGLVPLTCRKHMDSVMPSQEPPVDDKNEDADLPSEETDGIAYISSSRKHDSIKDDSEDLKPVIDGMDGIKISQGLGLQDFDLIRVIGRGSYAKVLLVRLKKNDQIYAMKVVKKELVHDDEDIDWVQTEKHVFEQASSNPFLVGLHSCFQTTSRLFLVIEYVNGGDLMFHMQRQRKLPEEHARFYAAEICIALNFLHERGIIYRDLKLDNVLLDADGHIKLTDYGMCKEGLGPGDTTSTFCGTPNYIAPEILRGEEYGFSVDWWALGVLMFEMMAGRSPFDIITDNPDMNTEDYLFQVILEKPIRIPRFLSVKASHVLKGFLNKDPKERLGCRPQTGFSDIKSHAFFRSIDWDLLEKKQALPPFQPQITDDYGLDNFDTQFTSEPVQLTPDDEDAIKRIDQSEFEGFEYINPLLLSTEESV
Experimental: as §1, §2

PKC delta = PKC delta (Homo sapiens, UniProt Q05655); experiment: as above; format: cell-based; parameters: endogenous in cells; settings: 5 mM by pinocytic influx, 24 hrs
Experimental: as §1, §2

PKC beta 1 = PKC beta 1 (Homo sapiens, UniProt P05771); experiment: as above; format: cell-based; parameters: endogenous in cells; settings: 5 mM by pinocytic influx, 24 hrs
Experimental: as §1, §2

Chain of PKC beta 1 (P05771 whole entry): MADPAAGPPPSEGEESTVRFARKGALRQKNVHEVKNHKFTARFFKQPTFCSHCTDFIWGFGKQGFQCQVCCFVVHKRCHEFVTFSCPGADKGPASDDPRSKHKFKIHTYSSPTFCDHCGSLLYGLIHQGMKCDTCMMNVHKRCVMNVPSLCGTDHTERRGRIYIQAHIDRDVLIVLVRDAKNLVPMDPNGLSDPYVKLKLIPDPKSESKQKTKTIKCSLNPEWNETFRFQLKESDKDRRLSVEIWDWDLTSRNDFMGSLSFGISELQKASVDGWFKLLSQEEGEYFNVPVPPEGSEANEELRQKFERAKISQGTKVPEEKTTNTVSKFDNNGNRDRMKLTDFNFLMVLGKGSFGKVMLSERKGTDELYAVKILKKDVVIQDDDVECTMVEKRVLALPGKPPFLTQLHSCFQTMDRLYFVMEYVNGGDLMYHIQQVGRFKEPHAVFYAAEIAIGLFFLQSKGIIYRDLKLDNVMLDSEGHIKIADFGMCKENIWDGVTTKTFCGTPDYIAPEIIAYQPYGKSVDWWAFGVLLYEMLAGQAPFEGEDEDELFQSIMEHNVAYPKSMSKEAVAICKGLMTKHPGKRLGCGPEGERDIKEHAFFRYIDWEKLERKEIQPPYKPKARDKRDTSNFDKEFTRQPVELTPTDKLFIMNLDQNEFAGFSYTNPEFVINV
Chain of PKC delta (Q05655 whole entry): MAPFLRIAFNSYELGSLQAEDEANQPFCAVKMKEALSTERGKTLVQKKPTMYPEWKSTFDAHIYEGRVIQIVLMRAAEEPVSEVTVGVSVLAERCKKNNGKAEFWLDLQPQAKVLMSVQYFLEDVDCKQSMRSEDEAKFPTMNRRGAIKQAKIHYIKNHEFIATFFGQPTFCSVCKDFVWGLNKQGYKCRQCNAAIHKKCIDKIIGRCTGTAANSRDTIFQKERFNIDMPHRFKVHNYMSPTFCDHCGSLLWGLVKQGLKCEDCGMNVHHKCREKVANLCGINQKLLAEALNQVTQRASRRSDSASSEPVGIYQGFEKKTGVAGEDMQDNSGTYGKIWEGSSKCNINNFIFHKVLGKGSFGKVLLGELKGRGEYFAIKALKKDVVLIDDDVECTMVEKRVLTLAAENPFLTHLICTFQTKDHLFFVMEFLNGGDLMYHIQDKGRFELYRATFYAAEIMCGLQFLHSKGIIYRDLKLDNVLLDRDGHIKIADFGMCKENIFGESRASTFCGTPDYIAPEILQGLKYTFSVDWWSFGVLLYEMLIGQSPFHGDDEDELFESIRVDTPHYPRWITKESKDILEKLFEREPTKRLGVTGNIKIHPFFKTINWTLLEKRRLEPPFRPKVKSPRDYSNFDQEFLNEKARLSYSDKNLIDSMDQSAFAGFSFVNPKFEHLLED

CC[C@H](C)[C@H](NC(=O)[C@H](CO)NC(=O)[C@@H](NC(=O)CNC(=O)[C@@H](NC(=O)[C@H](CC(C)C)NC(=O)[C@H](CC(N)=O)NC(=O)[C@H](CCC(N)=O)NC(=O)[C@H](C)NC(=O)[C@H](CC(=O)O)NC(=O)[C@H](CCCCN)NC(=O)CNC(=O)CNC(=O)CNC(=O)CNC(=O)CNC(=O)CNC(=O)CNC(=O)[C@H](CC(C)C)NC(=O)[C@H](CCCNC(=N)N)NC(=O)[C@H](Cc1ccccc1)NC(=O)[C@H](CCCCNC(=O)CN(CCN)C(=O)Cn1cnc2c(N)ncnc21)NC(=O)[C@H](CCCNC(=N)N)NC(=O)[C@H](CCCNC(=N)N)NC(=O)[C@H](Cc1ccccc1)NC(C)=O)[C@@H](C)CC)[C@@H](C)CC)C(N)=O [TIM 10] (Ac-FRRK(PNA(A))FRLGGGGGGGKDAQNLIGISI-NH2)
no observed adverse effect level ([1]; IV study): 250 μg per mouse | toxic effects ([1]; topically or orally): No toxic effects were observed at any dose | % decrease PKC-ε band intensity relative to control (PKC epsilon; Capan-2): 0.0% | % decrease PKC-ε band intensity relative to control (PKC epsilon; MCF-7): 0.0% | % decrease PKC-ε band intensity relative to control (PKC epsilon; MDA-MB231): 0.0% | % decrease PKC-ζ band intensity relative to control (PKC zeta; Capan-2): 0.0% | % decrease PKC-ζ band intensity relative to control, Band 1 (PKC zeta; H661, Band 1): 13.4% | % decrease PKC-ζ band intensity relative to control, Band 2 (PKC zeta; H661, Band 2): 0.0% | % decrease PKC-ζ band intensity relative to control (PKC zeta; MCF-7): 7.3% | % decrease PKC-ζ band intensity relative to control (PKC zeta; MDA-MB231): 0.0% | % decrease PKC-ζ band intensity relative to control (PKC zeta; T24): 0.0% | % decrease PKC-δ band intensity relative to control (PKC delta; Calu-3): 22.2% | % decrease PKC-δ band intensity relative to control (PKC delta; Calu-6): 18.9% | % decrease PKC-δ band intensity relative to control (PKC delta; Capan-2): 53.3% | % decrease PKC-δ band intensity relative to control (PKC delta; H661): 0.0% | % decrease PKC-δ band intensity relative to control (PKC delta; MCF-7): 21.5% | % decrease PKC-δ band intensity relative to control (PKC delta; MDA-MB231): 36.6% | % decrease PKC-δ band intensity relative to control (PKC delta; SK-OV-3): 0.0% | % decrease PKC-δ band intensity relative to control (PKC delta; T24): 62.2% | % decrease PKC-βI band intensity relative to control (PKC beta 1; Capan-2): 17.5% | % decrease PKC-βI band intensity relative to control (PKC beta 1; H661): 3.0% | % decrease PKC-βI band intensity relative to control (PKC beta 1; MCF-7): 0.0% | % decrease PKC-βI band intensity relative to control (PKC beta 1; MDA-MB231): 0.0%
